Laboratory results taken from US20250145594A1, “MODULATORS OF THE INTEGRATED STRESS PATHWAY” (Calico Life Sciences LLC, priority 2020, published 2025).

Test system: ATF4 luciferase reporter in HEK293T cells
Experiment: ATF4-Luc assay (in vitro model of VWMD)
Format: cell-based, human
Conditions: Homo sapiens, HEK-293T, 7 h, HEK293T cells carrying the ATF4 luciferase reporter, 1 μg/mL tunicamycin, One Glo luminescence
In short: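 Stable HEK293T line expressing firefly luciferase behind the human ATF4 5′-UTR, treated with 1 μg/mL tunicamycin plus compound for 7 hours. Luminescence read with One Glo; EC50 determined.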

O=C(NC12CC(n3cc(-c4cnc(C(F)(F)F)c(F)c4)cn3)(C1)C2)[C@H]1C[C@@H](O)c2cc(Cl)ccc2O1 [Compound 347, (2R,4R)-6-chloro-N-(3-{4-[5-fluoro-6-(trifluoromethyl)pyridin-3-yl]-1H-pyrazol-1-yl}bicyclo[1.1.1]pentan-1-yl)-4-hydroxy-3,4-dihydro-2H-1-benzopyran-2-carboxamide]
EC50: < 10 nM

O=C(NC12CC(n3cc([C@H]4[C@@H]5CN(CC(F)(F)F)C[C@@H]54)cn3)(C1)C2)[C@H]1C[C@@H](O)c2cc(Cl)ccc2O1 [Compound 583, (2R,4R)-6-chloro-4-hydroxy-N-(3-{4-[(1R,5S,6s)-3-(2,2,2-trifluoroethyl)-3-azabicyclo[3.1.0]hexan-6-yl]-1H-pyrazol-1-yl}bicyclo[1.1.1]pentan-1-yl)-3,4-dihydro-2H-1-benzopyran-2-carboxamide]
EC50: < 10 nM

O=C(NC12CCC(n3cc(-c4ccc(C(F)(F)F)cn4)cn3)(C1)C2)[C@H]1C[C@@H](O)c2cc(Cl)ccc2O1 [Compound 626, (2R,4R)-6-chloro-4-hydroxy-N-(4-{4-[5-(trifluoromethyl)pyridin-2-yl]-1H-pyrazol-1-yl}bicyclo[2.1.1]hexan-1-yl)-3,4-dihydro-2H-1-benzopyran-2-carboxamide]
EC50: 10 to 50 nM

O=C(COc1ccc(Cl)c(F)c1)NC12CC(n3cc(CCCOC(F)(F)F)cn3)(C1)C2 [Compound 613, 2-(4-chloro-3-fluorophenoxy)-N-(3-{4-[3-(trifluoromethoxy)propyl]-1H-pyrazol-1-yl}bicyclo[1.1.1]pentan-1-yl)acetamide]
EC50: 10 to 50 nM

O=C(CO[C@H]1C[C@@H](OC(F)(F)F)C1)NC12CCC(NC(=O)[C@@H]3C[C@@H](O)c4cc(Cl)ccc4O3)(CC1)C[C@@H]2O (single isomer, unassigned) [Compound 279]
EC50: < 10 nM

O=C(NC12CC(n3cc(OCCCC(F)(F)F)cn3)(C1)C2)[C@H]1C[C@@H](O)c2cc(C(F)(F)F)c(F)cc2O1 [Compound 641, (2R,4R)-7-fluoro-4-hydroxy-N-{3-[4-(4,4,4-trifluorobutoxy)-1H-pyrazol-1-yl]bicyclo[1.1.1]pentan-1-yl}-6-(trifluoromethyl)-3,4-dihydro-2H-1-benzopyran-2-carboxamide]
EC50: < 10 nM

O=C(COc1ccc(C(F)(F)F)c(F)c1)NC12CC(n3cc(C(=O)N4CC[C@H](OC(F)(F)F)C4)cn3)(C1)C2 [Compound 621, 2-[3-fluoro-4-(trifluoromethyl)phenoxy]-N-(3-{4-[(3S)-3-(trifluoromethoxy)pyrrolidine-1-carbonyl]-1H-pyrazol-1-yl}bicyclo[1.1.1]pentan-1-yl)acetamide]
EC50: < 10 nM

COCc1ccc2nn(C34CC(NC(=O)[C@H]5C[C@@H](O)c6cc(Cl)ccc6O5)(C3)C4)cc2c1 [Compound 510, (2R,4R)-6-chloro-4-hydroxy-N-{3-[5-(methoxymethyl)-2H-indazol-2-yl]bicyclo[1.1.1]pentan-1-yl}-3,4-dihydro-2H-1-benzopyran-2-carboxamide]
EC50: 10 to 50 nM

O=C(NC12CC(n3cc(-c4ccc(OC(F)(F)F)cn4)cn3)(C1)C2)[C@H]1C[C@@H](O)c2cc(C(F)(F)F)c(F)cc2O1 [Compound 485, (2R,4R)-7-fluoro-4-hydroxy-N-(3-{4-[5-(trifluoromethoxy)pyridin-2-yl]-1H-pyrazol-1-yl}bicyclo[1.1.1]pentan-1-yl)-6-(trifluoromethyl)-3,4-dihydro-2H-1-benzopyran-2-carboxamide]
EC50: < 10 nM

O=C(NC12CC(n3cc(OCCOC(F)(F)F)cn3)(C1)C2)[C@H]1C[C@@H](O)c2cc(F)ccc2O1 [Compound 418, (2R,4R)-6-fluoro-4-hydroxy-N-(3-{4-[2-(trifluoromethoxy)ethoxy]-1H-pyrazol-1-yl}bicyclo[1.1.1]pentan-1-yl)-3,4-dihydro-2H-1-benzopyran-2-carboxamide]
EC50: 10 to 50 nM

O=C(NC12CC(c3ccc(OCCOC(F)(F)F)nc3)(C1)C2)[C@H]1C[C@@H](O)c2cc(Cl)ccc2O1 [Compound 450, (2R,4R)-6-chloro-4-hydroxy-N-(3-{6-[2-(trifluoromethoxy)ethoxy]pyridin-3-yl}bicyclo[1.1.1]pentan-1-yl)-3,4-dihydro-2H-1-benzopyran-2-carboxamide]
EC50: 50 to 250 nM

O=C(NC12CC(n3cc(OCCOCC(F)(F)F)cn3)(C1)C2)[C@H]1C[C@@H](O)c2cc(Cl)ccc2O1 [Compound 425, (2R,4R)-6-chloro-4-hydroxy-N-(3-{4-[2-(2,2,2-trifluoroethoxy)ethoxy]-1H-pyrazol-1-yl}bicyclo[1.1.1]pentan-1-yl)-3,4-dihydro-2H-1-benzopyran-2-carboxamide]
EC50: < 10 nM

O=C(N[C@H]1CC[C@H](n2cc(OCCCC(F)(F)F)cn2)CC1)[C@H]1C[C@@H](O)c2cc(Cl)c(F)cc2O1 [Compound 527, (2R,4R)-6-chloro-7-fluoro-4-hydroxy-N-((1r,4R)-4-[4-(4,4,4-trifluorobutoxy)-1H-pyrazol-1-yl]cyclohexyl)-3,4-dihydro-2H-1-benzopyran-2-carboxamide]
EC50: < 10 nM

COc1ccc2nn(C34CC(NC(=O)[C@H]5C[C@@H](O)c6cc(Cl)ccc6O5)(C3)C4)cc2n1 [Compound 462, (2R,4R)-6-chloro-4-hydroxy-N-[3-(5-methoxy-2H-pyrazolo[4,3-b]pyridin-2-yl)bicyclo[1.1.1]pentan-1-yl]-3,4-dihydro-2H-1-benzopyran-2-carboxamide]
EC50: < 10 nM

O=C(NC12CC(n3cc(OCCOC(F)(F)F)cn3)(C1)C2)[C@H]1C[C@H](O)c2cc(Cl)c(Cl)cc2O1 [Compound 436, (2R,4S)-6,7-dichloro-4-hydroxy-N-(3-{4-[2-(trifluoromethoxy)ethoxy]-1H-pyrazol-1-yl}bicyclo[1.1.1]pentan-1-yl)-3,4-dihydro-2H-1-benzopyran-2-carboxamide]
EC50: < 10 nM

O=C(CO[C@H]1C[C@@H](OC(F)(F)F)C1)NC12CCC(NC(=O)[C@H]3C[C@@H](O)c4cc(Cl)ccc4O3)(CC1)C[C@@H]2O [Compound 117, (2R,4R)-6-chloro-4-hydroxy-N-[(3S)-3-hydroxy-4-(2-{[(1s,3R)-3-(trifluoromethoxy)cyclobutyl]oxy}acetamido)bicyclo[2.2.2]octan-1-yl]-3,4-dihydro-2H-1-benzopyran-2-carboxamide]
EC50: < 10 nM

O=C(NC12CC(n3cc(-c4ccc(C(F)(F)F)cn4)cn3)(C1)C2)[C@H]1CNc2cc(Cl)ccc2O1 [Compound 572, (2R)-6-chloro-N-(3-{4-[5-(trifluoromethyl)pyridin-2-yl]-1H-pyrazol-1-yl}bicyclo[1.1.1]pentan-1-yl)-3,4-dihydro-2H-1,4-benzoxazine-2-carboxamide]
EC50: < 10 nM

O=C(NC12CC(n3cc4cc(OC(F)(F)F)ccc4n3)(C1)C2)[C@H]1C[C@@H](O)c2cc(Cl)ccc2O1 [Compound 509, (2R,4R)-6-chloro-4-hydroxy-N-{3-[5-(trifluoromethoxy)-2H-indazol-2-yl]bicyclo[1.1.1]pentan-1-yl}-3,4-dihydro-2H-1-benzopyran-2-carboxamide]
EC50: 10 to 50 nM

O=C(N[C@H]1CC[C@H](n2cc(OCCOC(F)(F)F)cn2)CC1)[C@H]1C[C@@H](O)c2cc(F)ccc2O1 [Compound 523, (2R,4R)-6-fluoro-4-hydroxy-N-[(1r,4R)-4-{4-[2-(trifluoromethoxy)ethoxy]-1H-pyrazol-1-yl}cyclohexyl]-3,4-dihydro-2H-1-benzopyran-2-carboxamide]
EC50: < 10 nM

O=C(NC12CC(n3cc(-c4cnn(C(F)(F)F)c4)cn3)(C1)C2)[C@H]1C[C@@H](O)c2cc(Cl)c(F)cc2O1 [Compound 479, (2R,4R)-6-chloro-7-fluoro-4-hydroxy-N-{3-[1′-(trifluoromethyl)-1H,1′H-[4,4′-bipyrazol]-1-yl]bicyclo[1.1.1]pentan-1-yl}-3,4-dihydro-2H-1-benzopyran-2-carboxamide]
EC50: < 10 nM

O=C(NC12CC(n3cc(-c4ccc(C(F)(F)F)cn4)cn3)(C1)C2)[C@H]1C[C@@H](O)c2cc(C(F)(F)F)ccc2O1 [Compound 354, (2R,4R)-4-hydroxy-6-(trifluoromethyl)-N-(3-{4-[5-(trifluoromethyl)pyridin-2-yl]-1H-pyrazol-1-yl}bicyclo[1.1.1]pentan-1-yl)-3,4-dihydro-2H-1-benzopyran-2-carboxamide]
EC50: < 10 nM

O=C(CO[C@H]1C[C@@H](OC(F)(F)F)C1)N[C@H]1C[C@H]2C[C@@H]1C[C@@H]2NC(=O)[C@@H]1C[C@@H](O)c2cc(Cl)ccc2O1 [Compound 388, (2S,4R)-6-chloro-4-hydroxy-N-[(1R,2S,4R,5S)-5-(2-{[cis-3-(trifluoromethoxy)cyclobutyl]oxy}acetamido)bicyclo[2.2.1]heptan-2-yl]-3,4-dihydro-2H-1-benzopyran-2-carboxamide]
EC50: 50 to 250 nM

O=C(NC12CCC(n3cc(OCCOC(F)(F)F)cn3)(C1)C2)[C@H]1C[C@@H](O)c2cc(Cl)c(F)cc2O1 [Compound 590, (2R,4R)-6-chloro-7-fluoro-4-hydroxy-N-(4-{4-[2-(trifluoromethoxy)ethoxy]-1H-pyrazol-1-yl}bicyclo[2.1.1]hexan-1-yl)-3,4-dihydro-2H-1-benzopyran-2-carboxamide]
EC50: 10 to 50 nM

COc1ccc2cn(C34CC(NC(=O)[C@H]5C[C@@H](O)c6cc(Cl)c(F)cc6O5)(C3)C4)nc2c1 [Compound 504, (2R,4R)-6-chloro-7-fluoro-4-hydroxy-N-[3-(6-methoxy-2H-indazol-2-yl)bicyclo[1.1.1]pentan-1-yl]-3,4-dihydro-2H-1-benzopyran-2-carboxamide]
EC50: < 10 nM

O=C(NC12CC(n3cc(C[C@H]4C[C@@H](OC(F)(F)F)C4)cn3)(C1)C2)[C@H]1C[C@@H](O)c2cc(Cl)c(F)cc2O1 [Compound 532, (2R,4R)-6-chloro-7-fluoro-4-hydroxy-N-[3-(4-{[(1s,3R)-3-(trifluoromethoxy)cyclobutyl]methyl}-1H-pyrazol-1-yl)bicyclo[1.1.1]pentan-1-yl]-3,4-dihydro-2H-1-benzopyran-2-carboxamide]
EC50: < 10 nM
